Reference: patent publication US20250221989A1, “PHARMACEUTICAL COMPOSITION, USE THEREOF, AND METHOD FOR TREATING CANCER” (Genfleet Therapeutics (Shanghai) Inc., priority 2022, published 2025)
Marks after values point to notes of the source that are not given here.

Key:
[1] = test system: Human non-small cell lung cancer cells SW1573; assay: Cell survival rate of SW1573 cells under drug combination, Cell Titer-Glo; format: cell-based; details: 120 h
Experimental: (§1) The cell survival rate (%) after the drug combinations was calculated by the formula: cell survival rate=(1−(RLU of DMSO control−RLU of treatment)/(RLU of DMSO control−RLU of blank control))×100%. The DMSO control was a vehicle control with no drugs, and the blank control was a medium control with no drugs and vehicles.
(§2) The value corresponding to the coordinates is the cell survival rate of the combination groups with corresponding concentrations of the two drugs.
(§3) The effect of the drug combinations on the tumor cells was evaluated by statistical methods. The statistical software used was R systems, and the statistical models were Bliss, HSA, Loewe, and ZIP. A synergic value>5 indicates a synergic effect, a synergic value>10 indicates a significant synergic effect, a synergic value<−5 indicates an antagonistic effect, and a synergic value<−10 indicates a significant antagonistic effect. The final efficacy of the drug combinations was further judged by the synergic value.
(§4) After 120 h, the cell viability was measured by Cell Titer-Glo method. The Cell Titer-Glo reagent was added at 30 μL/well. The plate was shaken for 2 min and left to stand for 10 min. The RLU value was read on the Envision system.

[2] = test system: Human non-small cell lung cancer cells NCI-H2122; assay: Cell survival rate of NCI-H2122 cells under drug combination, Cell Titer-Glo; format: cell-based; details: 120 h
Experimental: as §1
The value corresponding to the coordinates is the cell survival rate of the combination groups with corresponding concentrations of the two drugs. For example, in FIG. 1, when the horizontal coordinate read is 0 nM and the vertical coordinate read is 10.03 nM, the value corresponding to the coordinates is 86.1.
as §3
Human non-small cell lung cancer cells NCI-H2122 were plated into a 384-well plate at 600 cells/well. […] After 120 h, the cell viability was measured by Cell Titer-Glo method. […] The RLU value was read on the Envision system.

[3] = test system: mouse colon cancer CT26 KRAS G12C KI cell subcutaneous graft tumor model; assay: In vivo anti-tumor evaluation in mouse CT26 KRASG12C KI subcutaneous graft tumor model
Experimental: The animals and the main evaluation indexes were the same as those of Example 8.
Preparation: the compound of the formula (II) was prepared in a vehicle of 5% DMSO+10% Solutol HS 15+85% (6% HP—β-CD); mPD1 was prepared in PBS.
On day 12 after cell inoculation (DO), the grouping and treatment were started after the mean tumor volume reached 69 mm^3. 32 tumor-bearing mice were selected, randomized into 4 groups of 8 mice each as per the tumor volume and the body weight, and treated according to the administration regimen shown in Table 3. The administration volume in mice was 10 mL/kg. The mice were weighed on an electronic balance twice weekly and the tumor volume was measured with a vernier caliper twice weekly.
The main evaluation indexes were tumor volume, TGI, TWI, and RCBW.

[4] = test system: NCI-H2122 human non-small cell lung cancer model; assay: In vivo anti-tumor evaluation in NCI-H2122 human non-small cell lung cancer model; design: species or system BALB/c nude mice
Experimental: During the study, the health of the animals was observed daily. If there was a 10% weight loss in the animals, the administration dose was halved; if there was a 15% weight loss, the […] until a normal body weight was restored; or if the tumor volume in the animals exceeded 2,000 mm^3, the mouse was euthanized immediately. If the health condition met the following criteria, euthanasia was performed by the veterinarian:
BALB/c nude mice, aged 6-8 weeks, female, purchased from Beijing Vital River Laboratory Animal Technology Co., Ltd., Certificate No. 20170011008676, and housed in an SPF-grade environment.
NCI-H2122 cells were cultured in an RPMI 1640 medium containing 10% of FBS and 1% of penicillin-streptomycin in an incubator at 37° C. and 5% CO2. […] When the cells were in the logarithmic growth phase and the confluence reached […], the cells were collected and counted. The cells were collected and adjusted to a final concentration of 2.0×10^6 cells/mL. Mice were grafted subcutaneously at the right dorsal region in a volume of 0.15 mL/3×10^5 cells/mouse. When the tumors grew to an average size of about 242 mm^3 (D5 after grafting), 32 tumor-bearing mice were selected, randomized into 4 groups of 8 mice each as per the tumor volume and the body weight, and treated according to the administration regimen shown in Table 1. The dose in mice was 10 mL/kg. The mice were weighed on an electronic balance twice weekly and the tumor volume was measured with a vernier caliper twice weekly. The study was ended on D17 after grafting, and the mice were euthanized after tumor volume measurement.
Tumor volume (TV)=(L×W^2)/2, where L denotes the long diameter of the tumor, and W is the short diameter of the tumor.
TWI=(1−TWtreatment/Dx/TWcontrol/Dx)×100%, where TWcontrol denotes the average tumor weight (g) of the control group, and TWtreatment denotes the average tumor weight (g) of the treatment group.
RCBW (%)=(BWi−BW0)/BW0×100%, where BWi is the body weight of a mouse on a specific day and BW0 is the body weight of the mouse at the baseline.
All experimental data analysis and graphing were performed using GraphPad Prism software (GraphPad Software). Tumor volumes and the body weights of the animals in all groups were statistically compared using two-way ANOVA, Dunnett's multiple comparisons test. Tumor weights of the groups at the endpoint were statistically compared using one-way ANOVA, Dunnett's multiple comparisons test. P<0.05 denotes a statistically significant difference. The tumor volume and weight and body weight of animals are expressed by mean±standard error (SEM).

[5] = test system: Human rectal adenocarcinoma cells SW837; assay: Cell survival rate of SW837 cells under drug combination, Cell Titer-Glo; format: cell-based; details: 120 h
Experimental: as §1, §2, §3
as §4, with “Human rectal adenocarcinoma cells SW837 were plated into a 384-well plate at 800 cells/well. […] After” for “After”
as §4, with “Human rectal adenocarcinoma cells SW837 were plated into a 384-well plate at 800 cells/well. […] After” for “After”

[6] = test system: Human non-small cell lung cancer cells LU99; assay: Cell survival rate of LU99 cells under drug combination, Cell Titer-Glo; format: cell-based; details: 120 h
Experimental: as §1, §2, §3
as §4, with “Human non-small cell lung cancer cells LU99 were plated into a 384-well plate at 600 cells/well. […] After” for “After”
as §4, with “Human non-small cell lung cancer cells LU99 were plated into a 384-well plate at 600 cells/well. […] After” for “After”

[7] = test system: Human rectal adenocarcinoma cells SW1463; assay: Cell survival rate of SW1463 cells under drug combination, Cell Titer-Glo; format: cell-based; details: 120 h
Experimental: as §1, §2, §3, §4

[8] = Day 33, compound of formula (II) 3 mpk (D 0-9) & 1 mpk (D 10-20) p.o. q.d., mPD1 10 mpk i.p. biw
[9] = after 21 days treatment, compound of formula (II) 3 mpk (D 0-9) & 1 mpk (D 10-20) p.o. q.d., mPD1 10 mpk i.p. biw
[10] = Day 17, compound of formula (II) 10 mpk p.o. q.d., cetuximab 1 mpk i.p. biw
[11] = after 12 days treatment, mean ± SEM, compound of formula (II) 10 mpk p.o. q.d., cetuximab 1 mpk i.p. biw

SMILES: C=CC(=O)N1CCN2c3c(c(=O)n(-c4c(C)ccnc4C(C)C)c4nc(-c5c(O)cccc5F)c(Cl)cc34)N(C)C(=O)[C@H]2C1 [Compound of formula (II), (4aR,8R)-3-acryloyl-11-chloro-10-(2-fluoro-6-hydroxyphenyl)-8-(2-isopropyl-4-methylpyridin-3-yl)-6-methyl-2,3,4,4a,6,8-hexahydro-1H-pyrazino[1′,2′: 4,5] pyrazino[2,3-c][1,8]naphthyridine-5,7-dione]
- cell survival rate ([1]; SW1573, Example 6, 100 nM compound of formula (II) alone): 86.4%
- cell survival rate ([2]; NCI-H2122, Example 7, 3.17 nM compound of formula (II) alone): 60.7%
- tumor inhibitory effect (in words) ([3]; CT26 KRAS G12C KI subcutaneous graft tumor model): mild tumor inhibitory effects
- TGI [3, 8]: 46.74%
- TWI [3, 8]: 35.38%
- Body weight After grafting Day 33 [3, 9]: 22.76 ± 0.37 g
- Tumor volume Day 33 after grafting [3, 9]: 1065.38 ± 251.12 mm^3
- Tumor volume Day 33 after grafting ([3]; after 21 days treatment, compound of formula (II) 3 mpk (D 0-9) & 1 mpk (D 10-20) p.o. q.d., mPD1 10 mpk i.p. biw, listed as compound of formula (II)): 1,065 mm^3
- Tumor volume After grafting Day 12 ([3]; baseline at grouping (D0), mean ± SEM, n=8): 68.75 ± 6.65 mm^3
- Body weight Day 12 after grafting ([3]; baseline, mean ± SEM): 21.29 ± 0.29 g
- Tumor weight After grafting Day 33 ([3]; endpoint, compound of formula (II) 3 mpk (D 0-9) & 1 mpk (D 10-20) p.o. q.d., mPD1 10 mpk i.p. biw): 1.84 ± 1.12 g
- T/C ([3]; mean tumor volume at end of study, compound of formula (II) 3 mpk (D 0-9) & 1 mpk (D 10-20) p.o. q.d., mPD1 10 mpk i.p. biw): 54.92%
- TGI [4, 10]: 73.81%
- TWI [4, 10]: 49.37%
- Body weight After grafting Day 17 [4, 11]: 20.97 ± 0.38 g
- Tumor volume After grafting Day17 [4, 11]: 479.14 ± 58.84*** mm^3
- Body weight After grafting Day 5 ([4]; baseline, mean ± SEM): 21.16 ± 0.47 g
- Tumor weight After grafting Day 17 ([4]; endpoint, mean ± SEM, compound of formula (II) 10 mpk p.o. q.d., cetuximab 1 mpk i.p. biw): 0.30 ± 0.04 g
- cell survival rate ([5]; SW837, Example 2, 31.69 nM compound of formula (II) alone): 60.2%
- cell survival rate ([5]; SW837, Example 4, 31.69 nM compound of formula (II) alone): 56.2%
- cell survival rate ([6]; LU99, Example 1, 100 nM compound of formula (II) alone): 83%
- cell survival rate ([6]; LU99, Example 3, 100 nM compound of formula (II) alone): 83.8%
- cell survival rate ([6]; LU99, FIG. 1, coordinates 0 nM / 10.03 nM, stated as compound of formula (II) alone (BYL719 0 nM)): 86.1%
- cell survival rate ([7]; SW1463, Example 5, 31.69 nM compound of formula (II) alone): 43.2%

SMILES: CS(=O)(=O)N1CCN(Cc2cc3nc(-c4cccc5[nH]ncc45)nc(N4CCOCC4)c3s2)CC1 [GDC0941, Pictilisib, reference compound]
- cell survival rate ([1]; SW1573, Example 6, 3164 nM GDC0941 alone): 46%
- cell survival rate ([5]; SW837, Example 4, 1000 nM GDC0941 alone): 67.6%
- cell survival rate ([6]; LU99, Example 3, 100 nM GDC0941 alone): 85.4%
- cell survival rate ([7]; SW1463, Example 5, 1000 nM GDC0941 alone): 64.6%

SMILES: Cc1nc(NC(=O)N2CCC[C@H]2C(N)=O)sc1-c1ccnc(C(C)(C)C(F)(F)F)c1 [BYL719, Alpelisib, reference compound]
- cell survival rate ([5]; SW837, Example 2, 10000 nM BYL719 alone): 62.9%
- cell survival rate ([6]; LU99, Example 1, 1000 nM BYL719 alone): 62.6%

SMILES: CC1(C)CC[C@H](Nc2ncc(C(F)(F)F)c(-c3c[nH]c4c(P(C)(C)=O)c(C#N)ccc34)n2)CN1 [SY-5609, reference compound]
- cell survival rate ([2]; NCI-H2122, Example 7, 31.69 nM SY-5609 alone): 57.5%
